Patent US10550111B2, “Pyrimidine urea compound containing isoxazolines and use thereof” (SHENYANG SINOCHEM AGROCHEMICALS R&D CO., LTD, priority 2014, dated 2020)

Tests used:
Cyperus glomeratus L. = experiment: Weed spectrum study in greenhouse; type: in vivo
From the text: Seeds of monocotyledonous and dicotyledonous weeds were sown in nutrition soil in paper pot (7 cm diameter), covered with soil in 1 cm and grown in the greenhouse under good growth conditions (temperature, atmospheric humidity, water supply). The compounds of the present invention as emulsifiable concentrate, were applied in pre-emergence and post-emergence treatment by track sprayer (Engineer Research Ltd., pressure 1.95 kg/cm^2, volume 500 L/hm^2, track speed 1.48 km/h). Pre-emergence treatment was conducted after seeding 24 hours and post-emergence treatment was done when the respective weeds reached predetermined leaf stage ([…]), the state of growth of the respective weeds were visually observed to determine the growth inhibition rate (%) in accordance with the following evaluation standard.
(§1) Growth inhibition rate (%): 0=no discernible action: 100=all weeds dead or not emerged.
(§2) The method is as example 18.

grass weed = experiment: Field trial, weed control in orchard (non-cultivated land); type: in vivo, Digitaria sanguinalis (L.) Scop.
Method: (§3) The field trial was conducted in an orchard located at Liaoyang city, Liaoning province, China; the orchard planted mainly apple trees and almond trees, plum trees and pear trees as well, weeding control were conducted three times one year by application of paraquat. Weeds were distributed uniformity and moderate density, mainly of broad-leaf weeds including Conyza canadensis (L.)Cronq., Sonchus brachyotus DC., Polygonum aviculare L., Humulus scandens (Lour.) Merr., Ixeridium sonchifolium (Maxim.) Shih, Galium aparine L. var. tenerum Gren. et (Godr.) Rebb., Rumex japonicus Houtt. and Metaplexis japonica (Thunb.) Makino, partly of grass weed was Digitaria sanguinalis (L.) Scop., average height range was between 30 and 40 cm. sprayer was knapsack hand-operated sprayer(AGROLEX HD400) produced by AGROLEx PTE Ltd., spray volume was 675 L/hm^2, processing date was Jul. 3, 2015. On the 15th day after application, weeds were visually observed to determine the growth inhibition rate (%).

[1] = system: Abutilon theophrasti Medic.; experiment: Bioassay of herbicidal activity in greenhouse (further screening); type: in vivo
Method in brief: (§4)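 Visual growth inhibition rating (0 no effect to 100 all weeds dead or not emerged) after track-sprayer application (500 L/hm²) of emulsifiable concentrate. Treatments either pre-emergence, 24 h after sowing, or post-emergence at 2–3-leaf grass and 2–4-leaf broad-leaf stage, greenhouse-grown.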

Zinnia elegans Jacq. = experiment: as above; type: in vivo
Method in brief: as §4

[2] = system: Setaria glauca (L.) Beauv.; experiment: as above; type: in vivo
Method in brief: as §4

[3] = system: Echinochloa crus-galli (L.) Beauv.; experiment: as above; type: in vivo
Method in brief: as §4

weeds = experiment: Field trial, weed control in orchard (non-cultivated land); type: in vivo
Method: as §3

broad-leaf weeds = experiment: as above; type: in vivo
Method: as §3

[4] = system: Amaranthus retroflexus L.; experiment: Weed spectrum study in greenhouse; type: in vivo
From the text: Seeds of monocotyledonous and dicotyledonous weeds were sown in nutrition soil in paper pot (7 cm diameter), covered with soil in 1 cm and grown in the greenhouse under good growth conditions (temperature, atmospheric humidity, water supply). The compounds of the present invention as emulsifiable concentrate, were applied in pre-emergence and post-emergence treatment by track sprayer (Engineer Research Ltd., pressure 1.95 kg/cm^2, volume 500 L/hm^2, track speed 1.48 km/h). Pre-emergence treatment was conducted after seeding 24 hours and post-emergence treatment was done when the respective weeds reached predetermined leaf stage (grass weed 2- to 3-leaf stage, […]), the state of growth of the respective weeds were visually observed to determine the growth inhibition rate (%) in accordance with the following evaluation standard.
as §1, §2

[5] = system: broad-leaf weeds and grass weeds; experiment: General screening of herbicidal activity in greenhouse; type: in vivo; settings: 1000 g a.i./hm^2
Method in brief: as §4

Cyperus difformis L. = experiment: Weed spectrum study in greenhouse; type: in vivo
From the text: (§5) Seeds of monocotyledonous and dicotyledonous weeds were sown in nutrition soil in paper pot (7 cm diameter), covered with soil in 1 cm and grown in the greenhouse under good growth conditions (temperature, atmospheric humidity, water supply). The compounds of the present invention as emulsifiable concentrate, were applied in pre-emergence and post-emergence treatment by track sprayer (Engineer Research Ltd., pressure 1.95 kg/cm^2, volume 500 L/hm^2, track speed 1.48 km/h). Pre-emergence treatment was conducted after seeding 24 hours and post-emergence treatment was done when the respective weeds reached predetermined leaf stage (grass weed 2- to 3-leaf stage, broad-leaf weed 2- to 4-leaf stage), the state of growth of the respective weeds were visually observed to determine the growth inhibition rate (%) in accordance with the following evaluation standard.
as §1, §2

[6] = system: Arthraxon hispidus (Thunb.) Makino; experiment: Weed spectrum study in greenhouse; type: in vivo
From the text: as §5, §1, §2

[7] = system: Digitaria sanguinalis (L.); experiment: Weed spectrum study in greenhouse; type: in vivo
From the text: as §5, with “([…],” for “(grass weed 2- to 3-leaf stage,”
as §1, §2

[8] = dose 60 g a.i./hm^2, 15th day after application
[9] = dose 120 g a.i./hm^2, 15th day after application
[10] = dose 180 g a.i./hm^2, 15th day after application
[11] = dose 240 g a.i./hm^2, 15th day after application
[12] = dose 300 g a.i./hm^2, 15th day after application
[13] = pre-emergence, dose 600 g a.i./hm^2

## CCOC(=O)C1(C)CC(c2cc(-n3c(=O)cc(C(F)(F)F)n(C)c3=O)c(F)cc2Cl)=NO1 (stereo not drawn) [Compound 6]
Cyperus glomeratus L.; dose 7.5 g a.i./hm^2
  Growth inhibition rate, Cyperus glomeratus L. (5-leaf stage): 80%
Cyperus glomeratus L.; dose 15 g a.i./hm^2
  Growth inhibition rate, Cyperus glomeratus L. (5-leaf stage): 80%
Cyperus glomeratus L.; dose 30 g a.i./hm^2
  Growth inhibition rate, Cyperus glomeratus L. (5-leaf stage): 90%
Cyperus glomeratus L.; dose 60 g a.i./hm^2
  Growth inhibition rate, Cyperus glomeratus L. (5-leaf stage): 100%
Cyperus glomeratus L.; dose 120 g a.i./hm^2
  Growth inhibition rate, Cyperus glomeratus L. (5-leaf stage): 100%
Grass weed; [8]
  Growth inhibition rate (%) of grass weed: 61.7%
Grass weed; [9]
  Growth inhibition rate (%) of grass weed: 71.7%
Grass weed; [10]
  Growth inhibition rate (%) of grass weed: 83.3%
Grass weed; [11]
  Growth inhibition rate (%) of grass weed: 88.3%
Grass weed; [12]
  Growth inhibition rate (%) of grass weed: 94.3%
[1]; dose 7.5 g a.i./hm^2
  Growth inhibition rate, Post-emergence treatment, Abutilon theophrasti Medic.: 100%
[1]; dose 15 g a.i./hm^2
  Growth inhibition rate, Post-emergence treatment, Abutilon theophrasti Medic.: 100%
[1]; dose 30.0 g a.i./hm^2
  Growth inhibition rate, Post-emergence treatment, Abutilon theophrasti Medic.: 100%
[1]; dose 60.0 g a.i./hm^2
  Growth inhibition rate, Post-emergence treatment, Abutilon theophrasti Medic.: 100%
[1]; dose 120.0 g a.i./hm^2
  Growth inhibition rate, Post-emergence treatment, Abutilon theophrasti Medic.: 100%
[1]; dose 600 g a.i./hm^2
  Growth inhibition rate, Post-emergence treatment, Abutilon theophrasti Medic.: 100%
[1]; [13]
  Growth inhibition rate, Pre-emergence treatment, Abutilon theophrasti Medic.: 100%
Zinnia elegans Jacq.; dose 7.5 g a.i./hm^2
  Growth inhibition rate, Post-emergence treatment, Zinnia elegans Jacq.: 95%
Zinnia elegans Jacq.; dose 15 g a.i./hm^2
  Growth inhibition rate, Post-emergence treatment, Zinnia elegans Jacq.: 98%
Zinnia elegans Jacq.; dose 30.0 g a.i./hm^2
  Growth inhibition rate, Post-emergence treatment, Zinnia elegans Jacq.: 100%
Zinnia elegans Jacq.; dose 60.0 g a.i./hm^2
  Growth inhibition rate, Post-emergence treatment, Zinnia elegans Jacq.: 100%
Zinnia elegans Jacq.; dose 120.0 g a.i./hm^2
  Growth inhibition rate, Post-emergence treatment, Zinnia elegans Jacq.: 100%
Zinnia elegans Jacq.; dose 600 g a.i./hm^2
  Growth inhibition rate, Post-emergence treatment, Zinnia elegans Jacq.: 100%
Zinnia elegans Jacq.; [13]
  Growth inhibition rate, Pre-emergence treatment, Zinnia elegans Jacq.: 55%
[2]; dose 7.5 g a.i./hm^2
  Growth inhibition rate, Post-emergence treatment, Setaria glauca (L.) Beauv.: 85%
[2]; dose 15 g a.i./hm^2
  Growth inhibition rate, Post-emergence treatment, Setaria glauca (L.) Beauv.: 98%
[2]; dose 30.0 g a.i./hm^2
  Growth inhibition rate, Post-emergence treatment, Setaria glauca (L.) Beauv.: 95%
[2]; dose 60.0 g a.i./hm^2
  Growth inhibition rate, Post-emergence treatment, Setaria glauca (L.) Beauv.: 100%
[2]; dose 120.0 g a.i./hm^2
  Growth inhibition rate, Post-emergence treatment, Setaria glauca (L.) Beauv.: 100%
[2]; dose 600 g a.i./hm^2
  Growth inhibition rate, Post-emergence treatment, Setaria glauca (L.) Beauv.: 100%
[2]; [13]
  Growth inhibition rate, Pre-emergence treatment, Setaria glauca (L.) Beauv.: 55%
[3]; dose 7.5 g a.i./hm^2
  Growth inhibition rate, Post-emergence treatment, Echinochloa crus-galli (L.) Beauv.: 70%
[3]; dose 15 g a.i./hm^2
  Growth inhibition rate, Post-emergence treatment, Echinochloa crus-galli (L.) Beauv.: 98%
[3]; dose 30.0 g a.i./hm^2
  Growth inhibition rate, Post-emergence treatment, Echinochloa crus-galli (L.) Beauv.: 98%
[3]; dose 60.0 g a.i./hm^2
  Growth inhibition rate, Post-emergence treatment, Echinochloa crus-galli (L.) Beauv.: 100%
[3]; dose 120.0 g a.i./hm^2
  Growth inhibition rate, Post-emergence treatment, Echinochloa crus-galli (L.) Beauv.: 100%
[3]; dose 600 g a.i./hm^2
  Growth inhibition rate, Post-emergence treatment, Echinochloa crus-galli (L.) Beauv.: 100%
[3]; [13]
  Growth inhibition rate, Pre-emergence treatment, Echinochloa crus-galli (L.) Beauv.: 70%
weeds; [8]
  Total growth inhibition rate (%) of weeds: 81.7%
weeds; [9]
  Total growth inhibition rate (%) of weeds: 91.7%
weeds; [10]
  Total growth inhibition rate (%) of weeds: 91.7%
weeds; [11]
  Total growth inhibition rate (%) of weeds: 93.3%
weeds; [12]
  Total growth inhibition rate (%) of weeds: 98.7%
broad-leaf weeds; [8]
  Growth inhibition rate (%) of broad-leaf weeds: 85.0%
broad-leaf weeds; [9]
  Growth inhibition rate (%) of broad-leaf weeds: 93.3%
broad-leaf weeds; [10]
  Growth inhibition rate (%) of broad-leaf weeds: 94.3%
broad-leaf weeds; [11]
  Growth inhibition rate (%) of broad-leaf weeds: 97.0%
broad-leaf weeds; [12]
  Growth inhibition rate (%) of broad-leaf weeds: 92.7%
[4]; dose 7.5 g a.i./hm^2
  Growth inhibition rate, Amaranthus retroflexus L. (height 10-15 cm): 90%
[4]; dose 15 g a.i./hm^2
  Growth inhibition rate, Amaranthus retroflexus L. (height 10-15 cm): 98%
[4]; dose 30 g a.i./hm^2
  Growth inhibition rate, Amaranthus retroflexus L. (height 10-15 cm): 100%
[4]; dose 60 g a.i./hm^2
  Growth inhibition rate, Amaranthus retroflexus L. (height 10-15 cm): 100%
[4]; dose 120 g a.i./hm^2
  Growth inhibition rate, Amaranthus retroflexus L. (height 10-15 cm): 100%
[5]
  pre-emergence and post-emergence herbicidal activity against broad-leaf weeds and grass weeds: good
Cyperus difformis L.; dose 7.5 g a.i./hm^2
  Growth inhibition rate, Cyperus difformis L. (4,5-leaf stage): 30%
Cyperus difformis L.; dose 15 g a.i./hm^2
  Growth inhibition rate, Cyperus difformis L. (4,5-leaf stage): 60%
Cyperus difformis L.; dose 30 g a.i./hm^2
  Growth inhibition rate, Cyperus difformis L. (4,5-leaf stage): 90%
Cyperus difformis L.; dose 60 g a.i./hm^2
  Growth inhibition rate, Cyperus difformis L. (4,5-leaf stage): 95%
Cyperus difformis L.; dose 120 g a.i./hm^2
  Growth inhibition rate, Cyperus difformis L. (4,5-leaf stage): 100%
[6]; dose 7.5 g a.i./hm^2
  Growth inhibition rate, Arthraxon hispidus (Thunb.) Makino (3-leaf stage): 60%
[6]; dose 15 g a.i./hm^2
  Growth inhibition rate, Arthraxon hispidus (Thunb.) Makino (3-leaf stage): 85%
[6]; dose 30 g a.i./hm^2
  Growth inhibition rate, Arthraxon hispidus (Thunb.) Makino (3-leaf stage): 90%
[6]; dose 60 g a.i./hm^2
  Growth inhibition rate, Arthraxon hispidus (Thunb.) Makino (3-leaf stage): 100%
[6]; dose 120 g a.i./hm^2
  Growth inhibition rate, Arthraxon hispidus (Thunb.) Makino (3-leaf stage): 100%
[7]; dose 7.5 g a.i./hm^2
  Growth inhibition rate, Digitaria sanguinalis (L.) (4,5-leaf stage): 80%
[7]; dose 15 g a.i./hm^2
  Growth inhibition rate, Digitaria sanguinalis (L.) (4,5-leaf stage): 90%
[7]; dose 30 g a.i./hm^2
  Growth inhibition rate, Digitaria sanguinalis (L.) (4,5-leaf stage): 100%
[7]; dose 60 g a.i./hm^2
  Growth inhibition rate, Digitaria sanguinalis (L.) (4,5-leaf stage): 100%
[7]; dose 120 g a.i./hm^2
  Growth inhibition rate, Digitaria sanguinalis (L.) (4,5-leaf stage): 100%
